Source: patent US8642630B2, “Endogeneous repair factor production accelerators” (Ono Pharmaceutical Co., Ltd., priority 2002, dated 2014)

Tests used:
[1] = system: rat leg ischemia (arteriosclerosis obliterans (ASO)) model; experiment: Angiogenesis test using rat leg ischemia (ASO) model, Example 4; format: in vivo
Description: Leg ischemia model was prepared by ligating rat left femoral artery. Blood flow in hind legs was measured by using Laser Doppler Imager (Moor Instruments) 2 weeks after the preparation, and the animals were divided into 6 groups (n=5) in such a manner that the average value of blood flow became almost uniform.
(§1) Starting on the next day of the grouping, 0.1 ml/site, 2 sites, of the agent to be tested was administered by intramuscular injection into the left femoral adductor, for once a week, 4 times in total as a solution to be tested. One week after completion of the final administration, blood flows of hind legs were measured by using Laser Doppler Imager (Moor Instruments), and blood flows of the treated leg (left leg) and untreated leg (right leg) were compared and examined.
In this connection, construction of the solution to be tested is as follows. Solvent (control) group: 0.2 w/v % Tween 80 solution (0.2 ml).
• The polylactic acid-glycolic acid copolymer used in Preparation Example 2 was suspended in 0.2 w/v % Tween 80 solution (0.2 ml). In this connection, amount of the polylactic acid-glycolic acid copolymer is identical to the amount contained in the Compound 1 MS (1 mg). Compound 1 (1 mg) Group: • Compound 1 (1 mg) was suspended in 0.2 w/v % Tween 80 solution (0.2 ml). […]

[2] = system: rat leg ischemia (arteriosclerosis obliterans (ASO)) model; experiment: Rat leg ischemia (ASO) model; usefulness of topical administration, Example 6; format: in vivo; conditions: 0.1 mg, intramuscular administration into the ischemic left femoral part
Description: Leg ischemia model was prepared by ligating rat left femoral artery. Blood flow in hind legs was measured by using Laser Doppler Imager (Moor Instruments) 1 week after the preparation, and the animals were divided into 4 groups (n=5) in such a manner that the average value of blood flow became almost uniform.
as §1, with “into ischemic regions of” for “into”, “adductor (polymer group, Compound 1 group, Compound 1 MS group) and normal region of the right shoulder upper arm (Compound 1 MS group),” for “adductor,”
• The polylactic acid-glycolic acid copolymer used in Preparation Example 2 was suspended in 0.2 w/v % Tween 80 solution (0.2 ml). In this connection, amount of the polylactic acid-glycolic acid copolymer is identical to the amount contained in Compound 1 MS (1 mg). Compound 1 (0.1 mg) Group: • Compound 1 (0.1 mg) was suspended in 0.2 w/v % Tween 80 solution (0.2 ml). […]

O=C(O)COc1cccc2c1CCC=C2CCO/N=C(\c1ccccc1)c1cccnc1 [Compound 1, (E)-[5-[2-[1-phenyl-1-(3-pyridyl)methylideneaminoxy]ethyl]-7,8-dihydronaphthalen-1-yloxy]acetic acid]
Treated leg/untreated leg blood flow ratio ([1]; 1 mg as Compound 1, i.m. left femoral adductor once a week x4, 1 week after final administration): 76.2 ± 2.8 % | blood flow improving effect, in words ([1]; 1 mg, i.m. once a week x4, vs Control / polymer group): significant recovery of blood flow against Control | increase in the blood flow, in words [2]: significant blood flow increasing action was not observed | Treated leg/untreated leg blood flow ratio ([2]; once a week x4, 1 week after final administration): 60.5 ± 3.1%
